Data published in publication PMC3376652 (Journal of Medicinal Chemistry, 2012).
Read-outs that look alike come from different tables or passages of the source. Marks after values point to notes of the source that are not given here.

Legend:
[1] = molecular target: T1, gp120 from the YU2 strain (Human immunodeficiency virus type 1 group M subtype B, UniProt P35961); assay: Isothermal titration calorimetry of binding to full-length gp120; parameters: species or system HIV-1; conditions: for surface efficiency index (S.E.I.): calculated from KD and molecular polar surface area; for binding efficiency index (B.E.I.): calculated from KD and molecular weight; for change in heat capacity of binding: calculated from the temperature dependence of the binding enthalpies; for −TΔS: calculated from ΔG = ΔH – TΔS
[2] = system: recombinant HIV-1YU2 on Cf2Th-CCR5 cells; assay: Activation of viral infectivity in CD4-negative Cf2Th-CCR5 cells; type: cell-based; conditions: for Activation of Viral Infectivity: Cf2Th-CCR5 cells
[3] = system: amphotropic murine leukemia virus (A-MLV); type: cell-based; conditions: for IC50: Murine leukemia virus, read-out: A-MLV IC50
[4] = system: 17b binding to monomeric core and full-length gp120; assay: SPR of 17b binding to small molecule:gp120 complexes; parameters: species or system HIV-1
wild-type HIV-1YU2 virus [5] = type: cell-based; conditions: for IC50: read-out: HIV-1, YU-2 IC50, Table 2, Cf2Th-CD4/CCR5 cells, mean ± SD
Cf2Th-CD4-CCR5 cells = assay: Luminescent cell-based viability assay; parameters: species or system canine; conditions: 1 to 100 μM, 48 hours
S375Wgp120 YU2 virus = assay: Viral inhibition of the Phe43 cavity filling mutant virus; type: cell-based, HIV-1
[6] = system: 42 HIV-1 clade B and C isolates; assay: Viral breadth: neutralization of HIV-1 Env-pseudoviruses in TZM-bl cells; type: cell-based; conditions: 42 HIV-1 strains (clades B and C); for neutralization breadth among the viral isolates tested: IC50 < 100 μM
[7] = system: recombinant HIV-1YU2 on Cf2Th-CCR5 cells; conditions: relative to 1, ref Schon et al.[49] and Madani et al.[44]; cited from earlier work
[8] = molecular target: T1, gp120 from the YU2 strain; conditions: ITC, 25 °C, ref Schon et al.[49] and Madani et al.[44], cited from earlier work
wild-type HIV-1YU2 virus [9] = conditions: read-out: HIV-1, YU-2 IC50; Cf2Th-CD4/CCR5 cells, 10,000 RT units; ref Schon et al.[49] and Madani et al.[44]; cited from earlier work
[10] = Table 2, calculated from KD, 25 °C

SMILES	ΔH ([1]; Table 2, ITC, 25 °C) [kcal/mol]	ΔG [1, 10] [kcal/mol]	entry enhancement of YU2 viruses into CD4-negative, CCR5-expressing cells (in words) [2]	Activation of Viral Infectivity ([2]; Table 2, relative to 4)	inhibition of entry of A-MLV control virus (specificity, in words) [3]	effect on binding of 17b to gp120 [4]	change in heat capacity of binding [1]	percent of isolates with IC50 < 10 μM [6] [%]	Activation of Viral Infectivity [7]	ΔG [8]	ΔH [8]	further results
N[C@H]1Cc2ccccc2[C@@H]1NC(=O)C(=O)Nc1ccc(Cl)c(F)c1 [(+)-6, N^1-(4-chloro-3-fluorophenyl)-N^2-[(1S,2S)-2-amino-2,3-dihydro-1H-inden-1-yl]-oxalamide]	-15.4	-7.9	enhanced viral entry in CD4-negative cells at levels comparable to those previously measured for 1–4	1.4 ± 0.5 (relative to 4)	inhibiting entry of the A-MLV control virus with a similar IC50 value	enhance binding of 17b to both the monomeric core and full-length gp120						
O=C(Nc1ccc(Cl)c(F)c1)C(=O)N[C@H]1c2ccccc2C[C@H]1O [(+)-9, N^1-(4-chloro-3-fluorophenyl)-N^2-[(1S,2R)-2-hydroxy-2,3-dihydro-1H-inden-1-yl]oxalamide]												inhibition of viral entry (in words, data not shown) (wild-type HIV-1YU2 virus [5]): weak inhibition of viral entry
N=C(N)N[C@H]1Cc2ccccc2[C@@H]1NC(=O)C(=O)Nc1ccc(Cl)c(F)c1.O=CO [(+)-12, N^1-(4-chloro-3-fluorophenyl)-N^2-[(1S,2S)-2-guanidino-2,3-dihydro-1H-inden-1-yl]-oxalamide formate]	-14.9	-9.0	no appreciable entry enhancement	0.1 ± 0.0 (19)^j (relative to 4)	neither compound was found to inhibit entry of A-MLV	enhance binding of 17b to both the monomeric core and full-length gp120	−398 ± 5 cal/(K × mol)	57				surface efficiency index (S.E.I.) [1]: 6.4; binding efficiency index (B.E.I.) [1]: 16.8; IC50 [3]: > 100 µM; in vitro cytotoxicity, inhibition of cell growth (Cf2Th-CD4-CCR5 cells): did not demonstrate measurable inhibition of cell growth; sensitivity of YU2 S375Wgp120 virus to compound (S375Wgp120 YU2 virus): completely resistant; IC50 (wild-type HIV-1YU2 virus [5]): 20 µM; neutralization breadth among the viral isolates tested [6]: 100%
N[C@@H]1Cc2ccccc2[C@H]1NC(=O)C(=O)Nc1ccc(Cl)c(F)c1 [(−)-6]	-19.5	-8.1	enhanced viral entry in CD4-negative cells at levels comparable to those previously measured for 1–4	1.0 ± 0.3 (relative to 4)	inhibiting entry of the A-MLV control virus with a similar IC50 value	enhance binding of 17b to both the monomeric core and full-length gp120						Kd ([1]; KD, Table 2, ITC, 25 °C, PBS pH 7.4, 2% DMSO): 1.2 µM; −TΔS ([1]; Table 2): +11.4 kcal/mol
N=C(N)N[C@@H]1Cc2ccccc2[C@H]1NC(=O)C(=O)Nc1ccc(Cl)c(F)c1.O=CO [(−)-12]	-19.4	-9.0	no appreciable entry enhancement	0.0 ± 0.0 (4)^j (relative to 4)	neither compound was found to inhibit entry of A-MLV	enhance binding of 17b to both the monomeric core and full-length gp120	−817 ± 15 cal/(K × mol)	52				−TΔS ([1]; Table 2): +10.4 kcal/mol; surface efficiency index (S.E.I.) [1]: 6.4; binding efficiency index (B.E.I.) [1]: 16.8; IC50 [3]: > 100 µM; sensitivity of YU2 S375Wgp120 virus to compound (S375Wgp120 YU2 virus): completely resistant; IC50 (wild-type HIV-1YU2 virus [5]): 20 µM; neutralization breadth among the viral isolates tested [6]: 100%
CC1(C)CC(NC(=O)C(=O)Nc2ccc(Cl)cc2)CC(C)(C)N1 [Compound 1]								12	1.0	–7.4 kcal/mol	–24.5 kcal/mol	−TΔS ([8]; listed as NBD-556 (1)): +17.1 kcal/mol; IC50 (wild-type HIV-1YU2 virus [9]): > 100 µM
CC1(C)CC(NC(=O)C(=O)Nc2ccc(Br)cc2)CC(C)(C)N1 [Compound 2]									0.8 (relative to 1)	–7.7 kcal/mol	–22.8 kcal/mol	−TΔS ([8]; listed as NBD-557 (2)): +15.1 kcal/mol; IC50 (wild-type HIV-1YU2 virus [9]): > 100 µM
CC1(C)CC(NC(=O)C(=O)Nc2ccc(Cl)c(F)c2)CC(C)(C)N1 [Compound 3]									1.9 (relative to 1)	–8.3 kcal/mol	–20.8 kcal/mol	−TΔS ([8]; listed as JRC-I-191 (3)): +12.5 kcal/mol
CN1C(C)(C)CC(NC(=O)C(=O)Nc2ccc(Cl)c(F)c2)CC1(C)C [Compound 4]						enhance binding of 17b to both the monomeric core and full-length gp120	−738 ± 36 cal/(K × mol)					ΔH ([1]; Table 1, ITC, 25 °C): –19.7 kcal/mol; ΔG ([1]; Table 1, calculated from Kd, 25 °C): –8.8 kcal/mol; −TΔS ([1]; Table 1): +10.9 kcal/mol; Activation of Viral Infectivity ([2]; Table 1, relative to 3): 2.1 (relative to 3)^i
